In publication PMC5607274, “An iterative compound screening contest method for identifying target protein inhibitors using the tyrosine-protein kinase Yes” (Scientific Reports, 2017):

The compounds below were run against T1, human recombinant Yes [a.a. 2–543 (end)] (Homo sapiens, UniProt P07947) (assay: ADP-Glo kinase assay, inhibition rates of Yes phosphorylation activity (first and second screening)). Conditions: first screening; mean of n = 4 wells; 10 μmol L−1 compound.
T1 construct: human recombinant Yes [a.a; 2–543 (end)]; purchased BPS Bioscience 40488
T1 sequence (P07947 2-543): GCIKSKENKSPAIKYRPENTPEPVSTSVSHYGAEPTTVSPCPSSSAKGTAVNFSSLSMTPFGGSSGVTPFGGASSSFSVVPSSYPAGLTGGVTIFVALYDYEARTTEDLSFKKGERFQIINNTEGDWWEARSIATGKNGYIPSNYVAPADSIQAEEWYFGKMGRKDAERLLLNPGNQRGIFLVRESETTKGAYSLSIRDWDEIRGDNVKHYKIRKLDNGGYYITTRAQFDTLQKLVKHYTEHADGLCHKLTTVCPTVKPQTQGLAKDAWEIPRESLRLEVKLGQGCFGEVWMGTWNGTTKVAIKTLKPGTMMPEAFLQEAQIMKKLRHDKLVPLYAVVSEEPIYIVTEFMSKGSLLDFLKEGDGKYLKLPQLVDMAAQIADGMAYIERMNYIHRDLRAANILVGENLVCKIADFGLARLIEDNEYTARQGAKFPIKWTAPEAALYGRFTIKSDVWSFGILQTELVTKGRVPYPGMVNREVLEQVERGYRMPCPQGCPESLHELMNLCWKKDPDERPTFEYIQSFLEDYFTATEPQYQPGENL
Assay type: biochemical
Method: All inhibitory assays of the phosphorylation activity of Yes were performed in accordance with the Promega Technical Manual for the ADP-Glo™ Kinase Assay (Fitchburg, WI, USA. Catalog number: V9102). The human recombinant Yes [a.a. 2–543 (end)] was purchased from BPS Bioscience (catalog number: 40488). The details of the assay protocol and reagent information are given elsewhere.
The screening was conducted in three steps consisting of the first screening, the second screening, and the IC50 determination, as can be illustrated in Fig. 1b. First, we determined the inhibition rates of the 1,991 compounds. Each compound was placed in 4 wells of a 384-well plate. In total, 80 compounds were assayed on one plate and the other wells were used for positive and negative controls. The compounds were randomly placed on plates so that compounds proposed by one group were not placed on a plate together. A mean of four inhibition rates for each compound was compared to criteria for the first screening. […] Second, the inhibition rates of the screened compounds were determined on one plate using the same procedure of the first screening, where compounds were dissolved from fresh powder. […] Screened compounds were then evaluated for their IC50 values.

| SMILES | First screening IR (inhibition rate) [%] |
| --- | --- |
| CN(Cc1ccc(OC(F)F)cc1)C(=O)CN1C(=O)NC(C)(c2ccccc2Br)C1=O (stereo not shown) [Compound Z14158957] | 23 |
| CCC1(c2ccc(F)cc2)NC(=O)N(CC(=O)Nc2ccc(C(=O)N(C)C)cc2)C1=O (stereo not shown) [Compound Z14224841] | 16 |
| Cc1cc(C)n(-c2ccc(Cl)c(C(=O)OCC(=O)c3ccc(F)c(F)c3)n2)n1 [Compound Z15431588] | 20 |
| COc1ccc(/C=C2/CC(C)Cc3c2nc2ccccc2c3C(=O)OCC(N)=O)cc1 (stereo not shown) [Compound Z15674725] | 30 |
| C/C(N)=C(\C#N)C(=O)CSc1nnc(-c2ccccc2F)n1Cc1ccccc1 [Compound Z15780020] | -17 |
| COc1ccc(Nc2nc(COC(=O)CNS(=O)(=O)c3ccc(C)c(C)c3)cs2)cc1 [Compound Z16158532] | -1 |
| O=C(CN1C(=O)NC(Cc2c[nH]c3ccccc23)C1=O)Nc1ccc(-c2ccccc2)cc1 (stereo not shown) [Compound Z16202306] | 6 |
| CCOc1cc(N2CCOCC2)c(OCC)cc1NC(=O)CSc1nnc(-c2ccc3c(c2)OCO3)n1-c1ccccc1 [Compound Z16253844] | -3 |
| Cc1cc(C(=O)CSc2nnc(-c3ccc4c(c3)OCO4)n2-c2ccccc2)c(C)n1C [Compound Z16254213] | 6 |
| O=C(CSc1nnc(-c2ccc3c(c2)OCO3)n1-c1ccccc1)c1ccc[nH]1 [Compound Z16254229] | 7 |
| Cc1cccc(C(C)C)c1NC(=O)CSc1nc2ccc(Cl)cc2[nH]1 [Compound Z16257955] | 4 |
| Cc1noc(C)c1CSc1ncnc2sc3c(c12)CCC(C)C3 (stereo not shown) [Compound Z16316201] | -8 |
| NS(=O)(=O)c1ccc(CCNC(=O)CSc2nnc(-c3ccccc3F)n2CCc2ccccc2)cc1 [Compound Z16426742] | -1 |
| O=C(CSc1nnc(-c2ccccc2F)n1CCc1ccccc1)c1ccc[nH]1 [Compound Z16427126] | -9 |
| O=C(OCCOc1ccccc1Cl)c1cn2ccccc2n1 [Compound Z16593263] | 0 |
| Cc1ccc(SCC(=O)OCC(=O)Nc2ccc3[nH]c(=O)[nH]c3c2)cc1C [Compound Z16616292] | -13 |
| Cc1cccc(C(C)C)c1NC(=O)CSc1nc2ccc(Cl)cc2c(=O)n1CC(C)C [Compound Z16658902] | -5 |
| C=CCN1C(=O)c2ccc(C(=O)OCc3cn4ccccc4n3)cc2C1=O [Compound Z16715300] | 29 |
| Cc1noc(C)c1COC(=O)c1ccc2[nH]c(C)c(C)c2c1 [Compound Z17094388] | 4 |
| COc1ccccc1NC(=O)c1ccc(NC(=O)COc2ccc(C3SCCS3)cc2)cc1 [Compound Z17289317] | 1 |
| Fc1ccccc1-c1nc(SCc2cn3ccccc3n2)n[nH]1 [Compound Z17356722] | 0 |
| COCCCn1c(=O)c2ccccc2n2c(SCc3cn4ccccc4n3)nnc12 [Compound Z17893104] | -35 |

| SMILES | First screening IR (inhibition rate) [%] |
| --- | --- |
| CCCCCn1c(=O)c2ccccc2n2c(SCC(=O)NC(=O)NC3CCCC(C)C3C)nnc12 (stereo not shown) [Compound Z17895832] | -5 |
| C=CCNc1nc(C(=O)OCc2csc(-c3ccccc3)n2)cs1 [Compound Z17964966] | 18 |
| C=CCNc1nc(C(=O)OCCCn2c(=O)[nH]c3ccccc32)cs1 [Compound Z17965676] | 5 |
| COc1cc(C(=O)OC(C)C(=O)NC(C)(C#N)C(C)C)ccc1Oc1ccc(Cl)cc1[N+](=O)[O-] (stereo not shown) [Compound Z18025700] | 1 |
| O=C(CSc1ccc2c(c1)OCCCO2)Nc1ccc2c(c1)CCC2 [Compound Z18212324] | 14 |
| N#C/C(=C(/O)COC(=O)CCc1ccccc1)c1nc2ccccc2[nH]1 [Compound Z18264769] | 5 |
| O=C(COC(=O)c1ccccc1OCc1ccccc1)Nc1ccc2c(c1)CCC2 [Compound Z18387854] | 26 |
| Cc1ccccc1Nc1nc(N)nc(CSCc2ccc(Cl)cc2)n1 [Compound Z18432818] | 6 |
| Cc1ccccc1Nc1nc(N)nc(CSc2ccccc2Cl)n1 [Compound Z18459341] | 17 |
| Cn1nnnc1SCC(=O)c1c(-c2ccccc2)[nH]c2ccccc12 [Compound Z18519048] | 0 |
| CC(Sc1nnnn1C)C(=O)Nc1ccc2c(c1)OCO2 (stereo not shown) [Compound Z18519758] | 5 |
| Cc1cc(C)c(C(=O)COc2ncnc3ccccc23)cc1C [Compound Z18537178] | 7 |
| COc1cccc(NC(=O)COc2ncnc3ccccc23)c1 [Compound Z18537695] | -1 |
| Cc1cc(C(=O)COc2ncnc3ccccc23)c(C)n1CC(F)(F)F [Compound Z18537891] | 6 |
| NC(=O)c1cc(NC(=O)COC(=O)c2c3c(nc4ccccc24)/C(=C\c2ccccc2Cl)CC3)cc(C(N)=O)c1 [Compound Z18607575] | 10 |
| CC(Sc1nc2nn(-c3ccccc3)c(=O)c-2c2n1CCCCC2)C(=O)NC(=O)NC1CCCCC1 (stereo not shown) [Compound Z18614891] | 7 |
| Cc1cc(C)c(C(=O)CSc2nnc(-c3c[nH]c4ccccc34)n2CC2CCCO2)c(C)c1 (stereo not shown) [Compound Z18647134] | -1 |
| CC(Sc1nnc(-c2c[nH]c3ccccc23)n1CC1CCCO1)C(=O)Nc1ccc(N(C)C)cc1 (stereo not shown) [Compound Z18647898] | 0 |
| O=C(CSc1nnc(-c2ccco2)o1)Nc1ccc2c(c1)CCC2 [Compound Z18650720] | 15 |
| Cc1ccc(-n2c(SCC(=O)Nc3ccc(N4CCOCC4)cc3)nnc2-c2cccnc2)c(C)c1 [Compound Z18666705] | 54 |
| CCOc1ccc(-n2c(SCC(=O)c3ccc[nH]3)nnc2-c2ccccc2Cl)cc1 [Compound Z18672879] | 7 |
| O=C(COC(=O)c1ccccc1NS(=O)(=O)c1ccc(F)cc1)NC1CCCc2ccccc21 (stereo not shown) [Compound Z18712040] | -7 |

| SMILES | First screening IR (inhibition rate) [%] |
| --- | --- |
| Cc1cc(Br)ccc1SCC(=O)OC/C(O)=C(\C#N)c1nc2ccccc2[nH]1 [Compound Z18738204] | 43 |
| N#C/C(=C(/O)COC(=O)c1cc(F)c(F)cc1Cl)c1nc2ccccc2[nH]1 [Compound Z18771813] | 8 |
| COc1ccc2cc(-c3cc(C(=O)OCC(=O)Nc4cccc(C)c4)c4ccccc4n3)ccc2c1 [Compound Z18792577] | -12 |
| CCN(CC)S(=O)(=O)c1ccc(Cl)c(NC(=O)COC(=O)c2cc(-c3ccc4cc(OC)ccc4c3)nc3ccccc23)c1 [Compound Z18792611] | -19 |
| O=C(OCC(=O)N1N=C(c2ccc(Cl)cc2)CC1c1ccco1)c1cc(-c2ccco2)nc2ccccc12 (stereo not shown) [Compound Z18799147] | 0 |
| CSc1ncccc1C(=O)OCC(=O)N1N=C(c2ccc3ccccc3c2)CC1c1ccccc1 (stereo not shown) [Compound Z18838070] | 9 |
| CCc1nc2ccccc2c(C(=O)OCC(=O)Nc2cc(C(N)=O)cc(C(N)=O)c2)c1C [Compound Z19092990] | 2 |
| CN(CC(=O)Nc1ccccc1Cl)C(=O)COC(=O)c1c2c(nc3ccccc13)CCC(C(C)(C)C)C2 (stereo not shown) [Compound Z19182299] | -2 |
| Cc1ccc(NC(=O)CSc2ncnc3ccccc23)cc1F [Compound Z19314901] | 4 |
| CC1CCC(C(C)C)C(OC(=O)CSc2ncnc3ccccc23)C1 (stereo not shown) [Compound Z19316042] | 0 |
| N#Cc1ccc(Cl)cc1NC(=O)CSc1ncnc2ccccc12 [Compound Z19316082] | 18 |
| Cc1ccccc1Nc1nc(N)nc(CSc2nnc(NCc3ccccc3)s2)n1 [Compound Z19326161] | 1 |
| COc1ccc(/C=C2/CCCc3c2nc2ccccc2c3C(=O)OCC(=O)Nc2sc3c(c2C(=O)Nc2ccc(Cl)cc2)CCCC3)cc1 [Compound Z19394488] | 7 |
| Cc1ccccc1-n1c(SCC(=O)Nc2ccc(N3CCOCC3)cc2)nnc1-c1ccncc1 [Compound Z19446050] | -3 |
| O=C(CSc1n[nH]c(-c2cccs2)n1)Nc1ccc(-c2ccccc2)cc1 [Compound Z19449989] | 4 |
| CC(Sc1n[nH]c(-c2cccs2)n1)C(=O)c1c[nH]c2ccccc12 (stereo not shown) [Compound Z19450299] | 17 |
| CC(Sc1n[nH]c(-c2cccs2)n1)c1nc2ccccc2c(=O)[nH]1 (stereo not shown) [Compound Z19451548] | 2 |
| O=C(CSc1nnc(-c2c[nH]c3ccccc23)n1-c1ccc(Cl)cc1)N1CCNC1=O [Compound Z19511505] | 13 |
| COC(=O)c1c2c(nc3ccccc13)/C(=C\c1ccc3c(c1)OCO3)CCC2 [Compound Z19539846] | -2 |
| O=C(CSc1nc2ccccc2[nH]1)NC(=O)NCc1ccccc1 [Compound Z19649872] | 7 |
